Earlier results on 30 compounds are cited in article PMC12525602, “Identification of Selective α-Glucosidase Inhibitors via Virtual Screening with Machine Learning” (Molecules, 2025).

This series relates to α-glucosidase. The settings on record: activity label of the modeling dataset, Table S5 (1 = active, 0 = inactive); cited from earlier work.
On to `Cc1ccc(S(=O)(=O)NNC(=O)c2cc3cc(F)ccc3[nH]2)cc1` [compound 53], for which the activity was 0.

For the compound `c1ccc(Cn2cc(CSc3nnc(COc4cccc5cccnc45)o3)nn2)cc1` [compound 54], the activity is recorded as 0. For `CCCCCSc1nnc(COc2cccc3cccnc23)o1` [compound 55], the activity was 0. Take `O=[N+]([O-])c1ccc(Cn2cc(CSc3nnc(COc4cccc5cccnc45)o3)nn2)cc1` [compound 56]: the activity was 0.

With `BrCCSc1nnc(COc2cccc3cccnc23)o1` [compound 57], the activity is 0. As to `Cc1cccc(C)c1-n1cc(CSc2nnc(COc3cccc4cccnc34)o2)nn1` [compound 58], the activity is 0. For the compound `Cc1ccc(-n2cc(CSc3nnc(COc4cccc5cccnc45)o3)nn2)cc1` [compound 59], the activity is 0. For `N#Cc1ccc2[nH]c(-c3nnc(Nc4ccc([N+](=O)[O-])cc4)s3)cc2c1` [compound 60], the activity is 0. Turning to `Clc1ccc(Cn2cc(CSc3nnc(COc4cccc5cccnc45)o3)nn2)c(Cl)c1` [compound 61], the activity is recorded as 0.

`CCSc1nnc(COc2cccc3cccnc23)o1` [compound 63]: the activity is 0.

With `O=c1c(O[C@@H]2O[C@H](CO)[C@H](O)[C@H](O)[C@H]2O)c(-c2ccc(O)cc2)oc2cc(O)cc(O)c12` [compound 65], the activity was 0.

For `CC(C)CCC(=O)C1(O)C(O)=C(C(=O)CC(C)C)C(=O)C1CCC(C)C` (stereo not drawn) [compound 66], the activity is recorded as 0.

As to `CC1CCN(c2ccc(/C=N/Nc3nc(-c4ccc([N+](=O)[O-])cc4)cs3)cc2)CC1` [compound 67], the activity is listed as 0. For the compound `Cc1ccc(-c2csc(N/N=C/c3ccc(N4CCCC(C)C4)cc3)n2)cc1` (stereo not drawn) [compound 68], the activity is recorded as 0. As for `Fc1ccc(Cn2cc(CSc3nnc(COc4cccc5cccnc45)o3)nn2)cc1` [compound 69], the activity was 0.

For the compound `CC1CCCN(c2ccc(/C=N/Nc3nc(-c4ccc(Br)cc4)cs3)cc2)C1` (stereo not drawn) [compound 70], the activity is reported as 0. As to `Clc1cccc(Cl)c1-n1cc(CSc2nnc(COc3cccc4cccnc34)o2)nn1` [compound 71], the activity is 0.

`O=[N+]([O-])c1ccc(-n2cc(CSc3nnc(COc4cccc5cccnc45)o3)nn2)cc1` [compound 72]: the activity was 0. Turning to `Clc1ccc(Cn2cc(CSc3nnc(COc4cccc5cccnc45)o3)nn2)cc1` [compound 73], the activity was 0. As to `N#Cc1c(-c2ccc([N+](=O)[O-])cc2)cc(-c2cccnc2)c(C#N)c1N` [compound 75], the activity was 0. On to `CC1OC(Oc2cc(-c3oc4cc(O)cc(O)c4c(=O)c3O)cc(O)c2O)C(O)C(O)C1O` (stereo not drawn) [compound 76], for which the activity was 0. As for `CCCCCCn1cc(CSc2nnc(COc3cccc4cccnc34)o2)nn1` [compound 77], the activity is reported as 0. In the case of `CC1CCCN(c2ccc(/C=N/Nc3nc(-c4ccc(F)cc4F)cs3)cc2)C1` (stereo not drawn) [compound 78], the activity is listed as 0. `CC1CCN(c2ccc(/C=N/Nc3nc(-c4ccc(O)c(O)c4)cs3)cc2)CC1` [compound 79]: the activity is given as 0. Regarding `Fc1ccc(CSc2nnc(COc3cccc4cccnc34)o2)cc1F` [compound 80], the activity is given as 0.

For `Brc1ccc(-n2cc(CSc3nnc(COc4cccc5cccnc45)o3)nn2)cc1` [compound 81], the activity was 0. For `CCCCCn1cc(CSc2nnc(COc3cccc4cccnc34)o2)nn1` [compound 82], the activity is on record as 0. Turning to `CC1CCN(c2ccc(/C=N/Nc3nc(-c4ccc(Cl)cc4)cs3)cc2)CC1` [compound 83], the activity is given as 0. `CC1CCN(c2ccc(/C=N/Nc3nc(-c4ccc(F)cc4F)cs3)cc2)CC1` [compound 84]: the activity was 0. On to `C=CCSc1nnc(COc2cccc3cccnc23)o1` [compound 85], for which the activity is given as 0.
